Source: patent US20050080076A1 (Xanodyne Pharmacal, Inc., priority 2003, published 2005)

Experiments:
α2 adrenergic receptors = experiment: Receptor affinity summary, α2 adrenergic receptors; format: binding; parameters: key to Relative Affinity: ≧ indicates greater or equal affinity; = indicates about the same affinity; − indicates no affinity; details: for Relative Affinity: α2-Adrenergic
Protocol: (§1) Receptor-ligand binding studies were performed as known to one skilled in the art. Compounds evaluated were LMP, the parent compound, the NDM LMP metabolite of LMP, and the sulfoxide metabolite of LMP. These studies verified receptor binding and affinity by the parent compound, as well as identified other potential receptors for the parent compound and its metabolites, and identified and verified receptors and receptor affinity for the metabolites.
(§2) Dopamine receptor affinity included binding to D1, D2, D3, D4, and D5 receptors. Serotonin receptor affinity included binding to 5-HT1A, 5-HT2A, 5-HT2B, 5-HT2, 5-HT5A, 5-HT6, and 5-HT7 receptors. Alpha adrenergic receptor affinity included binding to α1A, α1B, α1C, α2A, α2B, and α2C receptors. Muscarinic receptor affinity included binding to M1, M2, M3, M4, and M5 receptors. Binding to the histamine H1 receptor, the calcium ion channel receptor, and the sodium ion channel receptor were also evaluated. In each of the tables, the following abbreviations are used: LMP indicates the parent compound levomepromazine. NDM LMP indicates the N-desmethyl (N-desmethyl) metabolite. Sulfoxide indicates the sulfoxide metabolite. […] Ki (the inhibition constants of binding) indicate binding affinity.

Muscarinic M2 = molecular target: T1, Muscarinic M2 (Homo sapiens, UniProt P08172); experiment: Receptor binding, Muscarinic M2
T1 sequence (P08172 1-466): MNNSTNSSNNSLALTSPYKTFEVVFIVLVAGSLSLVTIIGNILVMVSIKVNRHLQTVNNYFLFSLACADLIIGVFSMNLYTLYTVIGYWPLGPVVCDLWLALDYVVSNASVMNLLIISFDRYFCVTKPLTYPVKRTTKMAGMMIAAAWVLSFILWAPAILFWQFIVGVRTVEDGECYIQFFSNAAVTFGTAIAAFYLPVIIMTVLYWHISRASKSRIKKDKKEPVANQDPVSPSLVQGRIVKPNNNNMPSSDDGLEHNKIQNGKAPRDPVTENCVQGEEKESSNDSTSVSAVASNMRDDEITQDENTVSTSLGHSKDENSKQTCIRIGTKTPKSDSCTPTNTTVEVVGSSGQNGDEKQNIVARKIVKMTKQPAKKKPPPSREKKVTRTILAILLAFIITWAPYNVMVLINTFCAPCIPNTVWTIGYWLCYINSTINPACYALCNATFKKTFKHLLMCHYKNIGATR
Protocol: as §1, §2

Dopamine D3 = Dopamine D3 (Homo sapiens, UniProt P35462); experiment: Receptor binding, Dopamine D3
Chain of Dopamine D3 (P35462 whole entry): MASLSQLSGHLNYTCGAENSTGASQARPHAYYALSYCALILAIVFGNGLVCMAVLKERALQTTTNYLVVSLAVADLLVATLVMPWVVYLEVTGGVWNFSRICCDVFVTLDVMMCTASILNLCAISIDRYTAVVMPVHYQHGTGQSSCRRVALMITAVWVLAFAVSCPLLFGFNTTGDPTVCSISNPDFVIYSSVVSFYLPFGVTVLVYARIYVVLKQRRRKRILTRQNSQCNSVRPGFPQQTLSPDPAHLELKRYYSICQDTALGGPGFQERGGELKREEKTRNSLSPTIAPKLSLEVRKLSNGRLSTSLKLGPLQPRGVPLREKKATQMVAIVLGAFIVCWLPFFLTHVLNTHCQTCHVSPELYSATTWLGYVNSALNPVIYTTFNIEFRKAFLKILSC
Protocol: as §1, §2

Muscarinic M4 = molecular target: T2, Muscarinic M4 (Homo sapiens, UniProt P08173); experiment: Receptor binding, Muscarinic M4
T2 sequence (P08173 1-479): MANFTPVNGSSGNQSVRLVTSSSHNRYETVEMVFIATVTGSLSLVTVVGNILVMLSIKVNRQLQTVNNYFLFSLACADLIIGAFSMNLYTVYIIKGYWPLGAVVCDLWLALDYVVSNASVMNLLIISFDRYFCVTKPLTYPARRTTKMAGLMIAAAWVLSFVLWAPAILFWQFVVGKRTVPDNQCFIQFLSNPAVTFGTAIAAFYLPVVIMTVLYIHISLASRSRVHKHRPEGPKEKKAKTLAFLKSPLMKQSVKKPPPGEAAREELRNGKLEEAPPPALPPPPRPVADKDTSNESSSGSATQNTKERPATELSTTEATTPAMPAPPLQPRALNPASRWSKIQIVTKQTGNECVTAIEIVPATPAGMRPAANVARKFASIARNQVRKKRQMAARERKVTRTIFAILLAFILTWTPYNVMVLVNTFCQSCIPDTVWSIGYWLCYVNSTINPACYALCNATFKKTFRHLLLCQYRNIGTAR
Protocol: as §1, §2

Dopamine D2 = Dopamine D2 (Homo sapiens, UniProt P14416); experiment: Receptor binding, Dopamine D2
Chain of Dopamine D2 (P14416 whole entry): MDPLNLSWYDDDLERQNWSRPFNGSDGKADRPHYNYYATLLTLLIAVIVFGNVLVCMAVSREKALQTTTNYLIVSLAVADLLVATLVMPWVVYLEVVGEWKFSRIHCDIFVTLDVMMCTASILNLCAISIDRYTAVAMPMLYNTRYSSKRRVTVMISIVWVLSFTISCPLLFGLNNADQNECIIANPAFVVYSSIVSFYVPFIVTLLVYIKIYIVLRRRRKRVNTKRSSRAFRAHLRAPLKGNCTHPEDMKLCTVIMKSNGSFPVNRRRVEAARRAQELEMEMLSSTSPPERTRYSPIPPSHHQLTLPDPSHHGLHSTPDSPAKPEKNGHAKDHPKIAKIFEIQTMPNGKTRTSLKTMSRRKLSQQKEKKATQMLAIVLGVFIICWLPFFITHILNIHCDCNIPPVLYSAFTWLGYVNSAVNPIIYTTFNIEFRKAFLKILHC
Protocol: as §1, §2

Muscarinic M3 = Muscarinic M3 (Homo sapiens, UniProt P20309); experiment: Receptor binding, Muscarinic M3
Chain of Muscarinic M3 (P20309 whole entry): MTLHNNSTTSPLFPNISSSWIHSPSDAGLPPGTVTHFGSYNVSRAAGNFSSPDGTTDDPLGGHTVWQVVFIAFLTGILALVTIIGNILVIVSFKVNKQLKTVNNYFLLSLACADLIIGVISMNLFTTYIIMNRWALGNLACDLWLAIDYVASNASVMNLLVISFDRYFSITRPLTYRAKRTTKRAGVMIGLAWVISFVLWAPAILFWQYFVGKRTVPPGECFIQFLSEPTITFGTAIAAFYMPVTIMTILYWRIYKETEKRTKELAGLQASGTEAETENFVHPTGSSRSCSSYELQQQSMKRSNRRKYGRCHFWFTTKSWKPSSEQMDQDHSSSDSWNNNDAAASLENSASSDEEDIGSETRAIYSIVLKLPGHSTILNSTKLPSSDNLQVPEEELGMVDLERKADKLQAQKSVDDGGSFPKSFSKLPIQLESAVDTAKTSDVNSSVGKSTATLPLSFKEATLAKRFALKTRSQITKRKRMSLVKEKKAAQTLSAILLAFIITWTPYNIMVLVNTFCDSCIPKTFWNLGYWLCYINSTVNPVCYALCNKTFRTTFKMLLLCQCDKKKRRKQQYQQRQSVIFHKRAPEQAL
Protocol: as §1, §2

α1 adrenergic receptors = experiment: Receptor affinity summary, α1 adrenergic receptors; format: binding; details: for Relative Affinity: α1-Adrenergic; for binding to all α1 adrenergic receptors (in words): α1A, α1B, and α1C
Protocol: as §1, §2

Histamine H1 = Histamine H1 (Homo sapiens, UniProt P35367); experiment: Receptor binding, Histamine H1; details: for Relative Affinity: Histamine; for Ki: Histamine H1
Chain of Histamine H1 (P35367 whole entry): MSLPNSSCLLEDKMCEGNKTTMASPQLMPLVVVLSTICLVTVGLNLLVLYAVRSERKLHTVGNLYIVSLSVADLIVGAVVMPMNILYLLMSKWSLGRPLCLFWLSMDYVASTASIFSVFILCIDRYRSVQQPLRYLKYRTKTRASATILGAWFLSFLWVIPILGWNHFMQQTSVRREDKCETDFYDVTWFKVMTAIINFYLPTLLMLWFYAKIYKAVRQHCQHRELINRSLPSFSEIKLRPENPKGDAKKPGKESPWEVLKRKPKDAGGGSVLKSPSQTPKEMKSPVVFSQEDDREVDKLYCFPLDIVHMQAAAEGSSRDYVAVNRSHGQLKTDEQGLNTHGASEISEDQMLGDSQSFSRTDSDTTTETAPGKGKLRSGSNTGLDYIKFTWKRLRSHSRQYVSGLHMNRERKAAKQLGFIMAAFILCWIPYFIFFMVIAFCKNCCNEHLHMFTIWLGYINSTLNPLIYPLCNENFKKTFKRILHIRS
Protocol: as §1, §2

Serotonin 5-HT5A = Serotonin 5-HT5A (Homo sapiens, UniProt P47898); experiment: Receptor binding, Serotonin 5-HT5A
Chain of Serotonin 5-HT5A (P47898 whole entry): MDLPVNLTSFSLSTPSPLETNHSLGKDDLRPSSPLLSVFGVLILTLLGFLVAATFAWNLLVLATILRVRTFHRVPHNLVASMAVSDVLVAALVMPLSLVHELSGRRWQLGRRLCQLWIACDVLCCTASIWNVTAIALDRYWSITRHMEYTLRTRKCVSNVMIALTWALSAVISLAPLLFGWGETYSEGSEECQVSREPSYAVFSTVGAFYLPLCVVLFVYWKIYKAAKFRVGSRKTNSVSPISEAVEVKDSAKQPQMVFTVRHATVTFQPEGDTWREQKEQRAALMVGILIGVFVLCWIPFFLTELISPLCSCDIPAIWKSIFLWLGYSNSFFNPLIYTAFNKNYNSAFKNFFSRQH
Protocol: as §1, §2

Adrenergic α1B = molecular target: T3, Adrenergic α1B (Homo sapiens, UniProt P35368); experiment: Receptor binding, Adrenergic α1B
T3 sequence (P35368 1-520): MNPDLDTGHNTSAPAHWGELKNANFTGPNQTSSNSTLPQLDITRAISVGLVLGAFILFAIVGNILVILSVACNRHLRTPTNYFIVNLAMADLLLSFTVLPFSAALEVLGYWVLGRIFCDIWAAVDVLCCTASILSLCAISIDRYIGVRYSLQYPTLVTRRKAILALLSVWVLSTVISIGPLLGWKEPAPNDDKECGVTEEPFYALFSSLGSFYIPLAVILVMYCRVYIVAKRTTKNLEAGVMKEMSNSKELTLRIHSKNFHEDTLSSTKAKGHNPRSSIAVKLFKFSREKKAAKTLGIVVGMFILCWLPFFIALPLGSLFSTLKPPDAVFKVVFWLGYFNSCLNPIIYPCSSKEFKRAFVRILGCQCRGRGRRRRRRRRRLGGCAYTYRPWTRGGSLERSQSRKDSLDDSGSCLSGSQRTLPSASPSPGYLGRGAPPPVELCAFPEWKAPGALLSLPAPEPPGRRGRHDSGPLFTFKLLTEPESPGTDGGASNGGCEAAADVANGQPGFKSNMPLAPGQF
Protocol: as §1, §2

| Compound | binding affinity to α2 adrenergic receptors (in words) (α2 adrenergic receptors) | Relative Affinity (α2 adrenergic receptors) | Ki (Muscarinic M2) [nM] | Ki (Dopamine D3) [nM] | Ki (Muscarinic M4) [nM] | Ki (Dopamine D2) [nM] | Ki (Muscarinic M3) [nM] | Relative Affinity (α1 adrenergic receptors) | binding to all α1 adrenergic receptors (in words) (α1 adrenergic receptors) | Relative Affinity (Histamine H1) | Ki (Histamine H1) [nM] | Ki (Serotonin 5-HT5A) [nM] | Ki (Adrenergic α1B) [nM] |
| --- | --- | --- | --- | --- | --- | --- | --- | --- | --- | --- | --- | --- | --- |
| COc1ccc2c(c1)N(C[C@H](C)CN(C)C)c1ccccc1[S+]2[O-] (stereo partly drawn) [Sulfoxide, levomepromazine sulfoxide] | no affinity was detected | − | 1290 | > 10000 | 318 | > 10000 | 551 | LMP = NDM LMP ≧ sulfoxide | high binding | LMP = NDM LMP = sulfoxide | 6.1 | > 10000 | 80 |
| CNCC(C)CN1c2ccccc2Sc2ccc(OC)cc21 (stereo not drawn) [NDM LMP, R(+) 2-methoxy-10-2-methyl-3-monomethylaminopropyl phenothiazine] | demonstrated binding | LMP = NDM LMP | 325 | 5 | 88 | 17 | 47 | LMP = NDM LMP ≧ sulfoxide | high binding | LMP = NDM LMP = sulfoxide | 2.1 | 152 | 2 |
| COc1ccc2c(c1)N(C[C@H](C)CN(C)C)c1ccccc1S2 [LMP, Levomepromazine] | demonstrated binding |  | 263 | 4 | 34 | 8 | 39 |  | high binding |  | 2 | 136 | 2 |
